The values below are quoted from earlier work in patent US20140230258A1, “COMPACT HAND HELD DEVICE” (The Gillette Company, priority 2013, published 2014).

The conditions of this series: organism not stated.

As for `CCCCCCCCn1sc(Cl)c(Cl)c1=O` [4,5-dichloro-2-n-octyl-4-isothiazolin-3-one], the MIC entry is given as “about 50 ppm”.
